The values that follow come from EP4610260B1, “ARYL HETEROCYCLIC KV1.3 INHIBITOR, PREPARATION METHOD THEREFOR, AND USE THEREOF” (Shanghai Shenshi Wise Technology Co., Ltd., priority 2022, dated 2024).

Molecules are shown by their SMILES.

For the assay, the system named is Kv1.3 potassium channel. The experiment in a line: Whole-cell patch-clamp assay for inhibitory activity against Kv1.3 (peak current). It is filed as cell-based. As to conditions: HEK293 cells stably expressing Kv1.3, room temperature. How it is done: 1. Assay for inhibitory activity of compounds against Kv1.X
HEK293 cells stably expressing Kv1.X (Kv1.1, Kv1.2, Kv1.3, Kv1.4, Kv1.5) potassium channels were cultured in DMEM medium containing 10% fetal bovine serum and 800 µg/mL G418 (geneticin) at a culture temperature of 37 °C and a carbon dioxide concentration of 5%.
1.2. Fluids used for recording
The extracellular fluid contained 40 mM NaCl, 3.5 mM KCl, 1 mM MgCl2•6H2O, 2 mM CaCl2•2H2O, 10 mM D-glucose, 10 mM HEPES, 1.25 mM NaH2PO4•2H2O, and the pH was adjusted to 7.4 with NaOH. The intracellular fluid contained 20 mM KCl, 115 mM K-Aspartic, 1 mM MgCl2•6H2O, 5 mM EGTA, 10 mM HEPES, 2 mM Na2-ATP, and the pH was adjusted to 7.2 with KOH.
The voltage stimulation protocol for recording whole-cell Kv1.X potassium currents via patch-clamp was as follows: After formation of a whole-cell seal, the cell membrane voltage was clamped at -80 mV, and then stepped to +40 mV for 500 ms. Data were acquired repeatedly every 30 s and the effect of the drug on Kv1.X currents was observed. […] Then, a slow capacitance compensation was given, and the membrane capacitance and series resistance were recorded. […]
Once the whole-cell recorded Kv1.X current stabilized, drug administration was started. […] For each cell, the current detected in the compound-free extracellular liquid was used as its own control group. […]

For the compound `Oc1ccc(Cl)c(Cl)c1[C@@H]1Cc2nnc([C@H]3C[C@H](O)C3)n2C1` [Example 71, 3,4-dichloro-2-((S)-3-((1r,3S)-3-hydroxycyclobutyl)-6,7-dihydro-5H-pyrrolo[2,1-c][1,2,4]triazol-6-yl)phenol], the IC50 is 10.3 nM.

As for `Oc1ccc(Cl)c(Cl)c1[C@@H]1Cc2nnc([C@H]3C[C@@H](O)C3)n2C1` [Example 70, 3,4-Dichloro-2-((S)-3-((1s,3R)-3-hydroxycyclobutyl)-6,7-dihydro-5H-pyrrolo[2,1-c][1,2,4]triazol-6-yl)phenol], the IC50 was determined as 21.6 nM.
